The target of one test is T1, rat TRPV2 (Rattus norvegicus, UniProt Q9WUD2).
T1 construct: expressed in transfected cells
T1 sequence (Q9WUD2 1-761): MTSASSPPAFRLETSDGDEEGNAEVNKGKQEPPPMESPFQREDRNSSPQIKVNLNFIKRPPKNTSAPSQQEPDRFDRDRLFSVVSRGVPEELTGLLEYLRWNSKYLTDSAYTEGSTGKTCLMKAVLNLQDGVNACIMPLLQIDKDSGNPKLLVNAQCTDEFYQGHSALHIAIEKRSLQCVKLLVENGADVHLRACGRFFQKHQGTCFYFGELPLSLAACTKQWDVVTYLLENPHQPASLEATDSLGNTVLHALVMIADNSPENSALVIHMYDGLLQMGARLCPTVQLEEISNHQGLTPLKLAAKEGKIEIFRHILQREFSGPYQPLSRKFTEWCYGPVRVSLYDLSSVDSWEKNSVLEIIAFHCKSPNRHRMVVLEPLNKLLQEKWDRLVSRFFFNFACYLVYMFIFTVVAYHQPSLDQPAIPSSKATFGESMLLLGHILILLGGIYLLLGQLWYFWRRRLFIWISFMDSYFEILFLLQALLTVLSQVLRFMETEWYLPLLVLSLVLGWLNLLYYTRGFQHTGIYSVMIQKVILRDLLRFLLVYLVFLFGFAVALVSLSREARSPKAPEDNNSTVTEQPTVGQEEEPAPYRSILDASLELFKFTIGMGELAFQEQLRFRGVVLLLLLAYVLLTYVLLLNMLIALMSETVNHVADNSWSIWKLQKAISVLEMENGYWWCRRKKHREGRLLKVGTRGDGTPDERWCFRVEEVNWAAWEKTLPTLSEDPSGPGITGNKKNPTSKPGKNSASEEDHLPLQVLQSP
Put plainly: Thermo-TRP assay: [Ca2+]i elevation (Fluo-4) in HEK-293 cells transfected with TRPV2. In kind it is cell-based. To be noted: for TRPV2 Efficacy (% Ionomycin 4 μM): agonist effect as % of ionomycin 4 μM; for EC50: half-maximal increase in [Ca2+]i, read-out: TRPV2 Potency EC50; for IC50: vs CBD 2 μM. Here is the method: The compounds were tested on HEK-293 cells either stably transfected with rat TRPA1, TRPV2, TRPV3, TRPV4, TRPM8 or human TRPV1 or not-transfected, by performing a continuous monitoring of the intracellular calcium ([Ca^2+]i) elevation during the experiments, following the protocol already described. On the day of the experiment, the cells were loaded for 1 h in the dark at room temperature with the fluorescent probe Fluo-4 AM (4 μM in DMSO containing 0.02% Pluronic F-127). The cells were rinsed, resuspended in Tyrode’s solution (145 mM NaCl, 2.5 mM KCl, 1.5 mM CaCl2, 1.2 mM MgCl2, 10 mM D-glucose, and 10 mM HEPES, pH 7.4), and transferred to a quartz cuvette of a spectrofluorimeter (PerkinElmer LS50B; λEX = 488 nm, λEM = 516 nm) equipped with a PTP-1 fluorescence Peltier system (PerkinElmer Life and Analytical Sciences, Waltham, MA, USA) under continuous stirring. Cell fluorescence before and after the addition of various concentrations of tested compounds was measured, normalizing the effects against the response to ionomycin (IM, 4 μM). The effect on [Ca^2+]i in non-transfected HEK-293 cells were used as the baseline and subtracted from the values obtained from the transfected ones. The efficacy of the agonists was determined by normalizing their effect to the maximum Ca^2+ influx effect on [Ca^2+]i observed with application of 4μM ionomycin. The effects of TRPA1 agonists are expressed as a percentage of the effect obtained with 100 μM allyl isothiocyanate (AITC). In the TRPV3 assay, rat TRPV3-expressing HEK-293 cells were first sensitized with the structurally unrelated agonist 2-aminoethoxydiphenyl borate (100 μM). For the TRPM8, the experiments were carried out at 22 °C. The potency (EC50 values) is determined as the concentration required to produce half-maximal increases in [Ca^2+]i. Antagonist/desensitizing behavior is evaluated against the agonist of the TRP analyzed by adding the compounds directly in the quartz cuvette 5 min before stimulation of cells with the agonist (allylisothiocyanate (100 μM) for TRPA1, capsaicin (0.1 μM) for TRPV1, cannabidiol (2 μM) for TRPV2, thymol (100 μM) for TRPV3, GSK1016790A (10 nM) for TRPV4, and icilin (0.25 μM) for TRPM8). The IC50 value is expressed as the concentration exerting a half-maximal inhibition of the agonist effect, taking as 100% the effect on [Ca^2+]i exerted by the agonist alone. A dose-response curve fitting (sigmoidal dose-response variable slope) and parameter estimation were performed with Graph-Pad Prism 8 (GraphPad Software Inc., San Diego, CA, USA). All determinations were performed at least in triplicate.

Another test deals with T2, rat TRPA1 (Rattus norvegicus, UniProt Q6RI86).
T2 construct: expressed in transfected cells
T2 sequence (Q6RI86 whole entry): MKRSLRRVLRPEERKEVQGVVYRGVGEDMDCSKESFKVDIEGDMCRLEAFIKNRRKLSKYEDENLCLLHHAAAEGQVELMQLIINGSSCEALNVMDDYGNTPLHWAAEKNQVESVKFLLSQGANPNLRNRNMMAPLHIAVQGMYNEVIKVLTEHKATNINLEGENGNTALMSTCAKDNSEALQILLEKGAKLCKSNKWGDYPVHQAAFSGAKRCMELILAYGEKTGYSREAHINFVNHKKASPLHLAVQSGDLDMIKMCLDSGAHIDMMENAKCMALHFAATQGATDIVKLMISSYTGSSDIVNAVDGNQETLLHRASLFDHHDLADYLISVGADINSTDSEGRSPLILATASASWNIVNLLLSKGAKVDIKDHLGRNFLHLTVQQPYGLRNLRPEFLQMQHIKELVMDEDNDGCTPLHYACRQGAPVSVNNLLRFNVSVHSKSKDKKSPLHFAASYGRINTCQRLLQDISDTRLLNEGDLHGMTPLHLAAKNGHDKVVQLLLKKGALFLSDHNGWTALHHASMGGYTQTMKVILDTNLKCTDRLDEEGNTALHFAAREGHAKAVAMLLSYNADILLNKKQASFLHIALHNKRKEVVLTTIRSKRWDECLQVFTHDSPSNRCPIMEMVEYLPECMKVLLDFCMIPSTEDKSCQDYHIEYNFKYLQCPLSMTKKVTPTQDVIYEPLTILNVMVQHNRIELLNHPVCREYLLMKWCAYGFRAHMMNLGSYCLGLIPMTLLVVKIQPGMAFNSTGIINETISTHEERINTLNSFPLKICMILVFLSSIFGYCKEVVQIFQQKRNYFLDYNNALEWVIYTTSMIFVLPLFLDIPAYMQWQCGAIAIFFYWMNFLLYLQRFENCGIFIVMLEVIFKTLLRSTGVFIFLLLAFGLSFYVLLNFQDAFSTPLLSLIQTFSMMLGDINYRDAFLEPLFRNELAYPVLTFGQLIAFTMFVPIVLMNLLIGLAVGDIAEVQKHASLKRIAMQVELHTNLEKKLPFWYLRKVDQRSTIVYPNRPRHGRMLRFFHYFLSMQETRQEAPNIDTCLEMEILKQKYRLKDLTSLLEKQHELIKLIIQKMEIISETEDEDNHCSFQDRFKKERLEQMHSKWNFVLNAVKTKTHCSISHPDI
In words: Thermo-TRP assay: [Ca2+]i elevation (Fluo-4) in HEK-293 cells transfected with TRPA1. In kind it is cell-based. The following applies: for TRPA1 Efficacy (% AITC 100 μM): agonist effect as % of AITC 100 μM, HEK-293 rat TRPA1; for IC50: antagonist/desensitizing, added 5 min before AITC 100 μM, read-out: IC50 TRPA1; for EC50: half-maximal increase in [Ca2+]i, read-out: TRPA1 Potency EC50. Here is the method:
The compounds were tested on HEK-293 cells either stably transfected with rat TRPA1, TRPV2, TRPV3, TRPV4, TRPM8 or human TRPV1 or not-transfected, by performing a continuous monitoring of the intracellular calcium ([Ca^2+]i) elevation during the experiments, following the protocol already described. […] Cell fluorescence before and after the addition of various concentrations of tested compounds was measured, normalizing the effects against the response to ionomycin (IM, 4 μM). The effect on [Ca^2+]i in non-transfected HEK-293 cells were used as the baseline and subtracted from the values obtained from the transfected ones. The efficacy of the agonists was determined by normalizing their effect to the maximum Ca^2+ influx effect on [Ca^2+]i observed with application of 4μM ionomycin. The effects of TRPA1 agonists are expressed as a percentage of the effect obtained with 100 μM allyl isothiocyanate (AITC). In the TRPV3 assay, rat TRPV3-expressing HEK-293 cells were first sensitized with the structurally unrelated agonist 2-aminoethoxydiphenyl borate (100 μM). For the TRPM8, the experiments were carried out at 22 °C. The potency (EC50 values) is determined as the concentration required to produce half-maximal increases in [Ca^2+]i. […] A dose-response curve fitting (sigmoidal dose-response variable slope) and parameter estimation were performed with Graph-Pad Prism 8 (GraphPad Software Inc., San Diego, CA, USA). All determinations were performed at least in triplicate.

SMILES strings stand for the structures.

Take `C=C(C)[C@@H]1CCC(C)=C[C@H]1C1=C(O)C(=O)C(C(C)(C)CCCCCC)=CC1=O` [5b]: at rat TRPV2, the “TRPV2 Efficacy (% Ionomycin 4 μM)” value amounted to 30.6 ± 6.5%; the EC50 – broadly, the concentration needed to bring the measured effect to its halfway point – turned out to be 12.2 ± 9.7 µM; it took 5.45 ± 0.5 µM to reach half-maximal inhibition (IC50). Moreover, at rat TRPA1, the “TRPA1 Efficacy (% AITC 100 μM)” value is recorded as 120.4 ± 3.0%; the IC50 (as a rule, the concentration that gives 50% inhibition) amounted to 3.5 ± 0.2 µM; the EC50 was 5.2 ± 0.8 µM.
As for `CCCCCCC(C)(C)C1=CC2=C(C(=O)C1=O)[C@@H]1CC(C)=CC[C@H]1C(C)(C)O2` [6b], on rat TRPV2, the “TRPV2 Efficacy (% Ionomycin 4 μM)” value is 78.1 ± 4.0%, the EC50 was above 50 µM and the IC50 was determined as 8.5 ± 0.5 µM. On rat TRPA1, the “TRPA1 Efficacy (% AITC 100 μM)” value stood at 147.3 ± 7.3%, the IC50 came to 1.8 ± 0.3 µM and the EC50 came out at 4.4 ± 1.25 µM.
Consider `CCCCCCC(C)(C)C1=CC(=O)C(C/C=C(\C)CCC=C(C)C)=C(O)C1=O` [7b, p-DMHCBGQ], for which, at rat TRPV2, the “TRPV2 Efficacy (% Ionomycin 4 μM)” value is listed as 47.8 ± 1.4%, the EC50 stood at 30.5 ± 3.9 µM and the IC50 was found to be 23.7 ± 2.9 µM. In addition, on rat TRPA1, the “TRPA1 Efficacy (% AITC 100 μM)” value is listed as 114.2 ± 4.1%, the IC50 worked out at 1.1 ± 0.1 µM and the EC50 was 1.1 ± 0.2 µM.
Consider `CCCCCCC(C)(C)C1=CC(=O)C2=C(OC(C)(CCC=C(C)C)C=C2)C1=O` (stereo not drawn) [8b], for which, at rat TRPV2, the “TRPV2 Efficacy (% Ionomycin 4 μM)” value is given as 31.5 ± 2.9%, the EC50 was above 50 µM and inhibition was half-maximal at 6.9 ± 0.1 µM (IC50). In addition, on rat TRPA1, the “TRPA1 Efficacy (% AITC 100 μM)” value was determined as 111.2 ± 2.1%, the IC50 was 0.35 ± 0.02 µM and the EC50 stood at 0.19 ± 0.03 µM.

The record behind these values is article PMC11942486, “The Impact of a Quinone Scaffold on Thermo-TRPs Modulation by Dimethylheptyl Phytocannabinoids” (International Journal of Molecular Sciences, 2025).
